Source: patent publication US4704393A, “1-substituted 5-fluorouracil useful for inhibiting the aggregation of platelets” (Terumo Kabushiki Kaisha, priority 1983, dated 1987)
Read-outs that look alike come from different tables or passages of the source.

What was measured:
P388 cells = test: Chemotherapeutic function: life elongation ratio (ILS %) of mice intra-abdominally transplanted with P388 cells; settings: for toxicity compared with 5-FU in P388-bearing mice: 50 mg/kg/day (Example 1 compound), 70 mg/kg/day (Examples 2 and 3 compounds); for chemotherapeutic function compared with 5-FU: P388 mice, Tables 1 and 2; for ILS (%) / Incremental Life Support ILS (%): intra-abdominal, once daily; for Incremental Life Support ILS (%): five consecutive days
Source text: To CDFl mice (males five weeks old), 1×10^6 P388 cells/mouse were intra-abdominally transplanted.
By following the procedure described above, each suspension of 0.5% of 1-(5,8,11,14,17-eicosapentaenoyloxy-meyhyl)-5-fluorouracil of Example 2 and 0.5% of 1-(4,7,10,13,16,19-docosahexenoyloxymethyl)-5-fluorouracil of Example 3 in carboxymethyl celloulose was intra-abdominally administered once daily to other mice of the same description to test for life elongation ratio.

in vivo = settings: mouse, ip
Source text: To ICR mice (male, seven weeks old), 1-(9,12,15-octadecatrienoyloxymethyl)-5-fluorouracil, 1-(5,8,11,14,17-eicosapentaenoyloxymethyl)-5-fluorouracil, and 1-(4,7,10,13,16,19-docosahexenoyloxymethyl)-5-fluorouracil were intra-abdominally administered to test for acute toxicity.

[1] = system: platelet aggregation induced by the arachidonic acid; test: Platelet aggregation inhibition in rabbit PRP, induced by arachidonic acid; format: cell-based; settings: Oryctolagus cuniculus
Source text: (§1) With a syringe containing an aqueous 3.8% sodium citrate solution (one volume), blood (nine volumes) was collected from a rabbit through the carotid artery. For this blood, blood plasma abounding with blood platelets (PRP: 500,000/μ1) was obtained by centrifugal separation. The compound of the present invention was used on the PRP, with arachidonic acid or collagen as a coagulation inducer, to test for plastocytic coagulation depressing function.
as §1, with “From” for “For”, “400,000/μ)” for “500,000/μ1)”, “an aggregation” for “a coagulation”, “platelet aggregation inhibiting” for “plastocytic coagulation depressing”

[2] = system: platelet aggregation induced by collagen; test: Platelet aggregation inhibition in rabbit PRP, induced by collagen; format: cell-based; settings: Oryctolagus cuniculus, collagen 25 μg/ml
Source text: as §1
as §1, with “From” for “For”, “400,000/μ)” for “500,000/μ1)”, “an aggregation” for “a coagulation”, “platelet aggregation inhibiting” for “plastocytic coagulation depressing”

[3] = arachidonic acid 80 μM, rabbit PRP 400,000/μ, read-out: 50% depression concentration (IC50) on platelet aggregation

In the case of `CCC=CCC=CCC=CCC=CCC=CCCCC(=O)OCn1cc(F)c(=O)[nH]c1=O` [1-(5,8,11,14,17-eicosapentaenoyloxymethyl)-5-flourouracil], the “toxicity compared with 5-FU in P388-bearing mice” value (shortened to “toxicity compared with 5-FU”) (P388 cells) is reported as “less toxic than 5-FU”, the “chemotherapeutic function compared with 5-FU” value (P388 cells) is reported as “equal to or better than the function of 5-FU” and the “ILS (%)” value (P388 cells; Table 2, 3 mg/kg/day) is reported as 18%. For the same molecule, the “ILS (%)” value (P388 cells; Table 2, 10 mg/kg/day) was 27%, the “ILS (%)” value (P388 cells; Table 2, 30 mg/kg/day) was 40% and the “ILS (%)” value (P388 cells; Table 2, 70 mg/kg/day) was 36%. For the same molecule, the “ILS (%)” value (P388 cells; Table 2, 100 mg/kg/day) was 19%, the LD50 (in vivo) was greater than 500 mg/kg and the IC50 [1, 3] was 120 µM. For the same molecule, the IC50 ([2]; rabbit PRP 400,000/μ) was 710 µM.
With `O=c1[nH]cc(F)c(=O)[nH]1` [Example 5-FU, 5-fluorouracil] the “days of survival compared with control group” value (P388 cells; 30 mg/kg/day) was “smaller numbers of days of survival on the mice treatd than the mice of the control group”, the “Incremental Life Support ILS (%)” value (P388 cells; Table 1, 5 mg/kg/day) was 35% and the “Incremental Life Support ILS (%)” value (P388 cells; Table 1, 10 mg/kg/day) was 47%. For the same molecule, the “Incremental Life Support ILS (%)” value (P388 cells; Table 1, 20 mg/kg/day) was 62%, the “Incremental Life Support ILS (%)” value (P388 cells; Table 1, 30 mg/kg/day) was -17% and the “ILS (%)” value (P388 cells; Table 2, 3 mg/kg/day) was 20%. For the same molecule, the “ILS (%)” value (P388 cells; Table 2, 10 mg/kg/day) was 38%, the “ILS (%)” value (P388 cells; Table 2, 30 mg/kg/day) was -8% and the LD50 (in vivo; in vivo) was 235 mg/kg. For the same molecule, the inhibition at 1000 µM ([1]; arachidonic acid 70 μM, rabbit PRP 500,000/μl, at 1×10^-3 M) was 4%, the IC50 [1, 3] was greater than 1000 µM and the IC50 ([2]; rabbit PRP 400,000/μ) was no less than 1000 µM. It also gave an IC50 ([2]; rabbit PRP 500,000/μl) of 530 µM.
With `CCC=CCC=CCC=CCC=CCC=CCC=CCCC(=O)OCn1cc(F)c(=O)[nH]c1=O` [1-(4,7,10,13,16,19-docosahexenoyloxymethyl)-5-fluorouracil] the “toxicity compared with 5-FU” value (P388 cells) was “less toxic than 5-FU”, the “chemotherapeutic function compared with 5-FU” value (P388 cells) was “equal to or better than the function of 5-FU” and the “ILS (%)” value (P388 cells; Table 2, 3 mg/kg/day) was 17%. For the same molecule, the “ILS (%)” value (P388 cells; Table 2, 10 mg/kg/day) was 34%, the “ILS (%)” value (P388 cells; Table 2, 30 mg/kg/day) was 47% and the “ILS (%)” value (P388 cells; Table 2, 70 mg/kg/day) was 30%. The “ILS (%)” value (P388 cells; Table 2, 100 mg/kg/day) was 22%, the LD50 (in vivo) was greater than 500 mg/kg and the IC50 [1, 3] was 54 µM. For the same molecule, the IC50 ([2]; rabbit PRP 400,000/μ) was 90 µM.
With `CC/C=C\C/C=C\C/C=C\CCCCCCCC(=O)OCn1cc(F)c(=O)[nH]c1=O` [1-(9,12,15-octadecatrienoyloxymethyl)-5-fluorouracil] the “toxicity compared with 5-FU” value (P388 cells) was “less toxic than 5-FU”, the “chemotherapeutic function compared with 5-FU” value (P388 cells) was “equal to or better than the function of 5-FU” and the “Incremental Life Support ILS (%)” value (P388 cells; Table 1, 5 mg/kg/day) was 23%. The “Incremental Life Support ILS (%)” value (P388 cells; Table 1, 10 mg/kg/day) was 52%, the “Incremental Life Support ILS (%)” value (P388 cells; Table 1, 20 mg/kg/day) was 71% and the “Incremental Life Support ILS (%)” value (P388 cells; Table 1, 30 mg/kg/day) was 64%. The “Incremental Life Support ILS (%)” value (P388 cells; Table 1, 50 mg/kg/day) was 47%, the “Incremental Life Support ILS (%)” value (P388 cells; Table 1, 100 mg/kg/day) was 7% and the LD50 (in vivo) was greater than 500 mg/kg. The IC50 ([1]; arachidonic acid 70 μM, rabbit PRP 500,000/μl, read-out: 50% inhibition concentration (IC50) on platelet aggregation) was 640 µM and the IC50 ([2]; rabbit PRP 500,000/μl) was 34 µM.
